Assay results from patent US10238658B2, “1-pyrazolyl-3-(4-((2-anilinopyrimidin-4-yl) oxy) napththalen-1-yl) ureas as p38 MAP kinase inhibitors” (Respivert Limited, priority 2011, dated 2019).
pIC50: −log10 of the molar value.

Columns and labels:
[1] = test system: IL-8; assay: LPS-stimulated IL-8 production in sputum macrophages from COPD; assay type: cell-based; conditions: Homo sapiens, Macrophage
Method: (§1) Patients with COPD were inhaled with a nebulised solution of 3% (w/v) hypertonic saline using an ultrasonic nebuliser (Devilbiss, Carthage, Mo.) with tidal breathing for 5 min. This procedure was repeated a maximum of three times until enough sputum was obtained. The sputum samples were homogenized and mixed vigorously using a vortex mixer in 0.02% v/v dithiothreitol (DTT) solution. The samples were re-suspended in PBS (40 mL) followed by centrifugation at 1500 rpm at 4° C. for 10 min to obtain sputum cell pellets. The pellets were washed twice with PBS (40 mL). The sputum cells were then re-suspended in macrophage serum-free medium (macrophage-SFM, Life technologies, Paisley, UK; to achieve 2×10^6/well in a 24 well plate) containing 20 U/mL penicillin, 0.02 mg/mL streptomycin and 5 μg/mL amphotericin B and seeded on high bound 96-well plate, followed by incubation for 2 hr at 37° C. and at 5% CO2 to allow the macrophages to attach to the bottom of the plate. The cells on the plate were washed with fresh macrophage-SFM (200 μL/well) to remove neutrophils and other contaminated cells. The adherent cells (mainly sputum macrophages) on the plate were used for further analysis. Sputum induction and isolation were conducted in Quintiles Drug Research Unit at Guys Hospital and ethics approval and written informed consent was obtained by Quintiles.
(§2) Where appropriate, 1 μL of a solution containing either the test compound or reference article at the stated concentrations or alternatively 1 μL of DMSO as the vehicle control was added to each well (200 μL in media) and the cells were incubated for 2 hr. […] After washing with 200 uL wash buffer per well, the beads were resuspended in sheath fluid (150 μL) and analyzed immediately. The level of each analyte in the supernatant was calculated using Xcel Fit software with a 4 or 5-parameter equation using each standard curve. The inhibitions of each cytokine production were calculated at each concentration by comparison with vehicle control. The IC50 values were determined from concentration-inhibition curves using XL-Fit (idbs, Guildford, UK)

[2] = test system: TNFα; assay: LPS-stimulated TNFα production in sputum macrophages from COPD; assay type: cell-based; conditions: Homo sapiens, Macrophage
Method: as §1, §2

[3] = test system: MIP1α; assay: LPS-stimulated MIP1α production in sputum macrophages from COPD; assay type: cell-based; conditions: Homo sapiens, Macrophage
Method: as §1, §2

[4] = test system: IL-8; assay: TNFα-stimulated IL-8 production in primary bronchial epithelial cells from COPD; assay type: cell-based; conditions: Homo sapiens, Epithelial cell
Method: Primary airway epithelial cells obtained from patients with COPD were purchased from Asterand (Royston, UK), and maintained in bronchial epithelial cell growth media that was prepared by mixing together LHC8 (lnvitrogen) (500 mL), with LHC9 (Invitrogen) (500 mL) and 3 μL of retinoic acid solution (5 mg/mL in neat DMSO. The media was removed by aspiration and fresh BEGM (200 μL) was added to each well. Where appropriate, 1 μL of a solution of the test compound at the state concentrations or 1 μL of DMSO as the vehicle control was added and the cells were incubated for 2 hr. The cells were stimulated with TNFα (50 μL; final concentration 50 ng/mL) and then incubated for 4 hr at 37° C. and 5% CO2. The supernatant was then collected and kept at −20° C.
The levels of IL-6 and IL-8 were determined by ELISA using R&D Systems' Human IL-6 and IL-8 Duoset® Elisa Kits. The inhibition of IL-6 and IL-8 production was calculated at each concentration by comparison with vehicle control.

[5] = test system: Balb/c mice; assay: LPS-induced neutrophil accumulation in mice; assay type: in vivo, mouse
Method: […] At T=0, mice were placed into an exposure chamber and exposed to LPS (7.0 mL, 0.5 mg/mL solution in PBS) for 30 min). After a further 8 hr the animals were anesthetized, their tracheas cannulated and BALF extracted by infusing and then withdrawing from their lungs 1.0 mL of PBS via the tracheal catheter. Total and differential white cell counts in the BALF samples were measured using a Neubaur haemocytometer. Cytospin smears of the BALF samples were prepared by centrifugation at 200 rpm for 5 min at RT and stained using a DiffQuik stain system (Dade Behring). Cells were counted using oil immersion microscopy. Data for neutrophil numbers in BAL are shown as mean ±S.E.M. (standard error of the mean). The percentage inhibition of neutrophil accumulation was calculated for each treatment relative to vehicle treatment,

[6] = test system: A/J mice; assay: Cigarette smoke model: macrophage and neutrophil accumulation in BALF; assay type: in vivo, mouse; conditions: for % inhibition Macrophage in BALF / % inhibition Neutrophil in BALF: tobacco smoke
Method: A/J mice (males, 5 weeks old) were exposed to cigarette smoke (4% cigarette smoke, diluted with air) for 30 min/day for 11 days using a Tobacco Smoke Inhalation Experiment System for small animals (Model SIS-CS; Sibata Scientific Technology, Tokyo, Japan). […] At 12 hr after the last dosing, each of the animals was anesthetized, the trachea cannulated and bronchoalveolar lavage fluid (BALF) was collected. The numbers of alveolar macrophages and neutrophils were determined by FACS analysis (EPICS® ALTRA II, Beckman Coulter, Inc., Fullerton, Calif., USA) using anti-mouse MOMA2 antibody (macrophage) or anti-mouse 7/4 antibody (neutrophil). BALF was centrifuged and the supernatant was collected. The level of keratinocyte chemoattractant (KC; CXCL1) in BALF was quantitated using a Quentikine® mouse KC ELISA kit (R&D systems, Inc., Minneapolis, Minn., USA).

## Cc1ccc(-n2nc(C(C)(C)C)cc2NC(=O)Nc2ccc(Oc3ccnc(Nc4ccccc4)n3)c3ccccc23)cc1 [Example 1, 1-(3-(tert-Butyl)-1-(p-tolyl)-1H-pyrazol-5-yl)-3-(4-(2-(phenylamino)pyrimidin-4-yloxy)naphthalen-1-yl)urea]
[1]; COPD patients, LPS
  pIC50: 7.17
[1]; read-out: IL-8 E max, sputum macrophage
  Emax at 0.1 µg/mL: 64%
[2]; COPD patients, LPS
  pIC50: 7.77
[2]; read-out: TNFα E max, sputum macrophage
  Emax at 0.1 µg/mL: 86%
[3]; COPD patients, LPS
  pIC50: 8.12
[3]; read-out: MIP1α E max, sputum macrophage
  Emax at 0.1 µg/mL: 89%
[4]; COPD patients, TNFα stimulated
  pIC50: 9.07
[4]; read-out: IL-8 E max, bronchial epithelial cell
  Emax at 0.1 µg/mL: 100%
[5]; 0.05 mg/mL intra tracheal, pre-dose 2 hr
  % inhibition of neutrophil numbers in BALF: 18%
[5]; 0.2 mg/mL intra tracheal, pre-dose 2 hr
  % inhibition of neutrophil numbers in BALF: 48%
[5]; 1.0 mg/mL intra tracheal, pre-dose 2 hr
  % inhibition of neutrophil numbers in BALF: 77%
[5]; 1.0 mg/mL intra tracheal, pre-dose 8 hr
  % inhibition of neutrophil numbers in BALF: 48%
[5]; 1.0 mg/mL intra tracheal, pre-dose 12 hr
  % inhibition of neutrophil numbers in BALF: 4%
[5]; mice
  LPS-induced neutrophil accumulation, effect in words: dose dependent inhibition
[6]; mice
  macrophage accumulation in BALF induced by cigarette smoke, effect in words: dose-dependent inhibition
  neutrophil accumulation in BALF induced by cigarette smoke, effect in words: dose-dependent inhibition
[6]; 0.32 μg/mL intra-nasal
  % inhibition Macrophage in BALF: 11%
  % inhibition Neutrophil in BALF: 12%
[6]; 1.6 μg/mL intra-nasal
  % inhibition Macrophage in BALF: 28%
  % inhibition Neutrophil in BALF: 29%
[6]; 8.0 μg/mL intra-nasal
  % inhibition Macrophage in BALF: 43%
  % inhibition Neutrophil in BALF: 41%
[6]; 40 μg/mL intra-nasal
  % inhibition Macrophage in BALF: 64%
  % inhibition Neutrophil in BALF: 52%
